Reference: ChEMBL document CHEMBL5393457, “Combined inhibition of amino acid transporters for inhibiting human plasmacytoid dendritic cell activity during autoimmunity” (2022)
Active and inactive are the calls of the source. The rule behind the calls is not given here.

Columns and labels:
[1] = target: Large neutral amino acids transporter small subunit 1 (Homo sapiens) (UniProt Q01650); test: Inhibition of human LAT1 at 100 uM relative to control
[2] = system: Plasmacytoid dendritic cell; test: Inhibition of F1F0-ATP synthase in CpG-A-stimulated human plasmacytoid dendritic cells at 1 uM assessed as reduction in TNF production in presence of 10 uM heptelidic acid; assay type: cell-based
[3] = system: Plasmacytoid dendritic cell; test: Inhibition of F1F0-ATP synthase in human plasmacytoid dendritic cells at 1 uM assessed as decrease in IFN-alpha production; assay type: cell-based
[4] = system: Plasmacytoid dendritic cell; test: Inhibition of F1F0-ATP synthase in CpG-A-stimulated human plasmacytoid dendritic cells at 1 uM assessed as reduction in IFN-alpha production in presence of 10 uM heptelidic acid; assay type: cell-based
[5] = system: Plasmacytoid dendritic cell; test: Inhibition of F1F0-ATP synthase in human plasmacytoid dendritic cells at 1 uM assessed as decrease in TNF production; assay type: cell-based
[6] = system: Plasmacytoid dendritic cell; test: Inhibition of mTORC1/mTORC2 in CpG-A and IL-3-activated human plasmacytoid dendritic cells at 200 ng/mL assessed as decrease in TNF production; assay type: cell-based
[7] = system: Plasmacytoid dendritic cell; test: Inhibition of mTORC1/mTORC2 in IL-3 and CpG-A-activated human plasmacytoid dendritic cells at 200 nM assessed as decrease in decrease in ENPP2/IFNA2 expression; assay type: cell-based
[8] = system: Plasmacytoid dendritic cell; test: Inhibition of mTORC1/mTORC2 in IL-3 and CpG-A-activated human plasmacytoid dendritic cells at 200 nM assessed as decrease in decrease in MYO1E/IFNA2 expression; assay type: cell-based
[9] = system: Plasmacytoid dendritic cell; test: Inhibition of mTORC1/mTORC2 in CpG-A and IL-3-activated human plasmacytoid dendritic cells at 200 ng/mL assessed as decrease in SLC3A2 expression; assay type: cell-based
[10] = system: Plasmacytoid dendritic cell; test: Inhibition of mTORC1/mTORC2 in CpG-A and IL-3-activated human plasmacytoid dendritic cells at 200 ng/mL assessed as decrease in SLC7A5 expression; assay type: cell-based
[11] = system: Plasmacytoid dendritic cell; test: Inhibition of mTORC1/mTORC2 in TLR9-activated human plasmacytoid dendritic cells at 1 uM assessed as decrease in CpG-A stimulated SLC7A11 expression; assay type: cell-based
[12] = system: Plasmacytoid dendritic cell; test: Inhibition of mTORC1/mTORC2 in CpG-A and IL-3-activated human plasmacytoid dendritic cells at 200 ng/mL assessed as decrease in IFN-alpha production; assay type: cell-based
[13] = target: T1, Signal transducer and activator of transcription 5A (Homo sapiens) (UniProt P42229); test: Inhibition of STAT5 in IL-3 and CpG-A-stimulated human plasmacytoid dendritic cells at 1 to 2 uM assessed as decrease in TNF production in presence of 100 uM sulfasalazine; assay type: cell-based; conditions: Plasmacytoid dendritic cell, dose 1-2 µM
T1 sequence (whole entry): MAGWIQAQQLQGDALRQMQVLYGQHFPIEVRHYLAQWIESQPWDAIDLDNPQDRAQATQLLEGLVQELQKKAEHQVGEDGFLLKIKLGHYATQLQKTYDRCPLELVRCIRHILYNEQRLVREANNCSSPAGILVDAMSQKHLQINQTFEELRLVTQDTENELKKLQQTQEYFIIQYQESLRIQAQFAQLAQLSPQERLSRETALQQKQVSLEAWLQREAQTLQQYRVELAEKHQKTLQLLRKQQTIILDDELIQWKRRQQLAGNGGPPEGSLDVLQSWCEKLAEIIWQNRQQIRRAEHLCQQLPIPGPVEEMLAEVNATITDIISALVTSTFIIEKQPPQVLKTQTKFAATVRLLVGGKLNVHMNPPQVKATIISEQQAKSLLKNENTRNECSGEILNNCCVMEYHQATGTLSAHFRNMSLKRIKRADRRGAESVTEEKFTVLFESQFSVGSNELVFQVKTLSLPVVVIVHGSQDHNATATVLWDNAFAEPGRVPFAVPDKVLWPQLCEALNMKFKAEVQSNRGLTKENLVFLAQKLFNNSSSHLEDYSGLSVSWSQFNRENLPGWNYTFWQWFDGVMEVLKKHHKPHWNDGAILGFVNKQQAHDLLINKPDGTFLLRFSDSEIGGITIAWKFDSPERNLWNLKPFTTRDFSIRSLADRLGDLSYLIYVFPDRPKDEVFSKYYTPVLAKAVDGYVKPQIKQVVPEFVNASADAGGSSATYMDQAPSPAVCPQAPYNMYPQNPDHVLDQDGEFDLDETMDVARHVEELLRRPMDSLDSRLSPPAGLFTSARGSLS

[14] = target: T1, Signal transducer and activator of transcription 5A (Homo sapiens); test: Inhibition of STAT5 in IL-3 and CpG-A-stimulated human plasmacytoid dendritic cells at 1 to 2 uM assessed as decrease in IFN-alpha production in presence of 100 uM sulfasalazine; assay type: cell-based; conditions: Plasmacytoid dendritic cell, dose 1-2 µM
[15] = target: Glyceraldehyde-3-phosphate dehydrogenase (Homo sapiens) (UniProt P04406); test: Inhibition of GAPDH in CpG-A-stimulated human plasmacytoid dendritic cells at 10 uM assessed as reduction in IFNa-alpha production; assay type: cell-based; conditions: Plasmacytoid dendritic cell
Chain of Glyceraldehyde-3-phosphate dehydrogenase (Homo sapiens) (P04406 2-335 limits assumed): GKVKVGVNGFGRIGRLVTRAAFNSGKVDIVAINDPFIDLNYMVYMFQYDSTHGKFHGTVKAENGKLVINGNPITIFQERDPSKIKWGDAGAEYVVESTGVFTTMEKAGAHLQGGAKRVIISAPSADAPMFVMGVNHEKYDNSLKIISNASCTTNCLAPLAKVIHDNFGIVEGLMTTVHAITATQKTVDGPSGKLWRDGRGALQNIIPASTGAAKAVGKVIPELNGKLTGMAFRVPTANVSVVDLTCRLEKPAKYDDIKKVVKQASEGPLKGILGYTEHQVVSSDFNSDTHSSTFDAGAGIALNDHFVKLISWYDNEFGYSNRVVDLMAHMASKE

[16] = target: Glyceraldehyde-3-phosphate dehydrogenase (Homo sapiens) (UniProt P04406); test: Inhibition of GAPDH in CpG-A-stimulated human plasmacytoid dendritic cells at 10 uM assessed as reduction in TNF production in presence of 1 uM oligomycin; assay type: cell-based; conditions: Plasmacytoid dendritic cell
[17] = target: Glyceraldehyde-3-phosphate dehydrogenase (Homo sapiens) (UniProt P04406); test: Inhibition of GAPDH in CpG-A-stimulated human plasmacytoid dendritic cells at 10 uM assessed as reduction in overall protein synthesis; assay type: cell-based; conditions: Plasmacytoid dendritic cell
[18] = target: Glyceraldehyde-3-phosphate dehydrogenase (Homo sapiens) (UniProt P04406); test: Inhibition of GAPDH in CpG-A-stimulated human plasmacytoid dendritic cells at 10 uM assessed as reduction in TNF production; assay type: cell-based; conditions: Plasmacytoid dendritic cell
[19] = target: Glyceraldehyde-3-phosphate dehydrogenase (Homo sapiens) (UniProt P04406); test: Inhibition of GAPDH in CpG-A-stimulated human plasmacytoid dendritic cells at 10 uM assessed as reduction in IFN-alpha production in presence of 1 uM oligomycin; assay type: cell-based; conditions: Plasmacytoid dendritic cell
[20] = target: Glyceraldehyde-3-phosphate dehydrogenase (Homo sapiens) (UniProt P04406); test: Inhibition of GAPDH in CpG-A-stimulated human plasmacytoid dendritic cells at 10 uM assessed as reduction in secreted lactate levels; assay type: cell-based; conditions: Plasmacytoid dendritic cell
[21] = target: Tyrosine-protein kinase JAK2 (Homo sapiens) (UniProt O60674); test: Inhibition of JAK2 in CpG-A and GM-CSF-activated human plasmacytoid dendritic cells at 1 uM assessed as decrease in kynurenine uptake; assay type: cell-based; conditions: Plasmacytoid dendritic cell
Chain of Tyrosine-protein kinase JAK2 (Homo sapiens) (O60674 whole entry): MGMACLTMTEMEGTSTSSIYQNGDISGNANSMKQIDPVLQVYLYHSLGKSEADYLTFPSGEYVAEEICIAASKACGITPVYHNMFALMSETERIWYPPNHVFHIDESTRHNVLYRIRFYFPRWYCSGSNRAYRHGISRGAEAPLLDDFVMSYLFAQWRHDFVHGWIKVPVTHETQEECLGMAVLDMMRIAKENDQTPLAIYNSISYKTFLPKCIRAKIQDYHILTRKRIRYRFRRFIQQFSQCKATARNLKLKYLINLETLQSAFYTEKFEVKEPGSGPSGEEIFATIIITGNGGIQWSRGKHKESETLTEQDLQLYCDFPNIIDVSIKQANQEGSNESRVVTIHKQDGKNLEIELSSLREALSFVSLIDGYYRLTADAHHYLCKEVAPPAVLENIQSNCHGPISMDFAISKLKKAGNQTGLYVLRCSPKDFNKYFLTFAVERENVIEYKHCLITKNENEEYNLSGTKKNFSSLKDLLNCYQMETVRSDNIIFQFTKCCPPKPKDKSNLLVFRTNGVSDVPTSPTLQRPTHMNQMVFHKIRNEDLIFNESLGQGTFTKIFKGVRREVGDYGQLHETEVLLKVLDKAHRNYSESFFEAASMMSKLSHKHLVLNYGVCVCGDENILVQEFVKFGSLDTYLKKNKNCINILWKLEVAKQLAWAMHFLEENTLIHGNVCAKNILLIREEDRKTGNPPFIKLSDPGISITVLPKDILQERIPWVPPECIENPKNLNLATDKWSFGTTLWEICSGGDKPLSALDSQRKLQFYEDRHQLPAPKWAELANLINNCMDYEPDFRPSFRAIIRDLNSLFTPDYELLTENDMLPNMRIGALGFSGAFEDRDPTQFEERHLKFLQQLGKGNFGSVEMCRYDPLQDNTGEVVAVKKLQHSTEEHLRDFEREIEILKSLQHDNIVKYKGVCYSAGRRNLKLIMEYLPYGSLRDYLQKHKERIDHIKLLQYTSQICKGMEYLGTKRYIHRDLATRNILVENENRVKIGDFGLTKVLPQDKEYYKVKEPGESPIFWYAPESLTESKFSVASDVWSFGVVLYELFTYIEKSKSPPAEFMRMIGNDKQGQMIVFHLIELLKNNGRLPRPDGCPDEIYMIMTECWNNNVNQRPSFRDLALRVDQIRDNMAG

[22] = target: Tyrosine-protein kinase JAK2 (Homo sapiens) (UniProt O60674); test: Inhibition of JAK2 in CpG-A and GM-CSF-activated human plasmacytoid dendritic cells at 1 uM assessed as decrease in IFN-alpha production; assay type: cell-based; conditions: Plasmacytoid dendritic cell
[23] = target: Tyrosine-protein kinase JAK2 (Homo sapiens) (UniProt O60674); test: Inhibition of JAK2 in CpG-A and GM-CSF-activated human plasmacytoid dendritic cells at 1 uM assessed as decrease in TNF production; assay type: cell-based; conditions: Plasmacytoid dendritic cell
[24] = target: Tyrosine-protein kinase JAK2 (Homo sapiens) (UniProt O60674); test: Inhibition of JAK2 in CpG-A and GM-CSF-activated human plasmacytoid dendritic cells at 1 uM assessed as decrease in mTORC1 activity; assay type: cell-based; conditions: Plasmacytoid dendritic cell

Chain of Large neutral amino acids transporter small subunit 1 (Homo sapiens) (Q01650 whole entry): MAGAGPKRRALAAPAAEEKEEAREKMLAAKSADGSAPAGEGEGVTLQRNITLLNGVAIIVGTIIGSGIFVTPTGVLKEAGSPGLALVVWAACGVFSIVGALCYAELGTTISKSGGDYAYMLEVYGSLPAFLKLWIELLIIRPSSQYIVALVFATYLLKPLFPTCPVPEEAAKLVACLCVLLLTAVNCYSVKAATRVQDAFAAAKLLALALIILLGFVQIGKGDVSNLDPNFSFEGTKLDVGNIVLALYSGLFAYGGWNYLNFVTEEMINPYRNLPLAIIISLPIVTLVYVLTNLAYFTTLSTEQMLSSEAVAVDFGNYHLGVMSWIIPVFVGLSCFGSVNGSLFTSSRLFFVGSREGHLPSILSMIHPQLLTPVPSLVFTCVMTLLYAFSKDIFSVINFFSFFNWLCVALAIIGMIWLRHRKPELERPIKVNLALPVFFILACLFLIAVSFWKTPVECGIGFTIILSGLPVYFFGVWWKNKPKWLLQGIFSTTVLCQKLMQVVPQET

N#C/C=N/c1c(SS)c(-c2ccccc2)nn1Cc1ccccc1
inhibition [1]: > 90%

CC[C@H]1/C=C/C=C/C[C@@H](C)[C@H](O)[C@@](C)(O)C(=O)[C@@H](C)[C@H](O)[C@@H](C)C(=O)[C@@H](C)[C@H](O)[C@@H](C)/C=C/C(=O)O[C@@H]2[C@H](C)[C@H](CC1)O[C@]1(CC[C@H](C)[C@H](C[C@@H](C)O)O1)[C@H]2C
inhibition [2]: Active
inhibition [3]: Active
inhibition [4]: Active
inhibition [5]: inactive

CCC(=O)N1CCN(c2ccc(-n3c(=O)ccc4cnc5ccc(-c6cnc7ccccc7c6)cc5c43)cc2C(F)(F)F)CC1
inhibition [6]: Active
inhibition [7]: Active
inhibition [8]: Active
inhibition [9]: Active
inhibition [10]: Active
inhibition [11]: Active
inhibition [12]: Active

CC(C)(C)c1cc(CN(C(=O)CN(Cc2ccc(Cl)cc2)S(=O)(=O)c2c(F)c(F)c(F)c(F)c2F)c2ccc(C(=O)O)cc2)cc(C(C)(C)C)c1
inhibition [13]: Active
inhibition [14]: Active

CC(C)[C@H]1CC[C@@]2(CO2)[C@H]2C(=O)OCC(C(=O)O)=C[C@H]12
inhibition [15]: Active
inhibition [16]: Active
inhibition [17]: Active
inhibition [18]: Active
inhibition [19]: Active
inhibition [20]: Active

O=c1[nH]c2ccccc2n1C1CCN(CCCC(c2ccc(F)cc2)c2ccc(F)cc2)CC1
inhibition [13]: Active
inhibition [14]: Active

Cc1cc(Nc2nc(N[C@@H](C)c3ncc(F)cn3)ncc2Cl)[nH]n1
inhibition [21]: Active
inhibition [22]: Active
inhibition [23]: Active
inhibition [24]: Active

N#Cc1c(Br)cccc1/N=c1\ssnc1Cl
inhibition [1]: > 90%
